Data reported in patent US12568967B2, “Compositions comprising pyridine carboxylate herbicides with synthetic auxin herbicides or auxin transport inhibitors” (priority 2018, dated 2026).

What was measured:
[1] = tested on: Hordeum vulgare (spring barley, HORVS); assay type: in vivo
[2] = tested on: Amaranthus retroflexus (pigweed, AMARE); assay: Greenhouse postemergence trial AMARE; assay type: in vivo; conditions: for % visual injury, Obs: AMARE, applied alone;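 on all read-outs here: Greenhouse-grown plants sprayed at second to third true leaf stage, injury rated by eye after 20-22 d versus solvent-blank sprayed controls, 0 = no injury, 100 = complete kill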
Protocol: (§1) The plants were grown for 7-36 days (d) in a greenhouse with an approximate 14-hour (h) photo-period which was maintained at about 23° C. during the day and 22° C. during the night. Nutrients and water were added on a regular basis and supplemental lighting was provided with overhead metal halide 1000-Watt lamps as necessary. The plants were employed for testing when they reached the second or third true leaf stage.
(§2) The emulsifiable concentrates also included a safener, cloquintocet-mexyl, at 120 grams active ingredient per liter (g ai/L), unless otherwise noted below.
(§3) Control plants were sprayed in the same manner with the solvent blank. All pyridine carboxylate herbicide (component a) application rates are given as “g ae/ha” and all synthetic auxin herbicide or auxin transport inhibitor (component b) application rates are given as “g ai/ha.”
(§4) The treated plants and control plants were placed in a greenhouse as described above and watered by sub-irrigation to prevent wash-off of the test compounds. After 20-22 d, the condition of the test plants as compared with that of the control plants was determined visually and scored on a scale of 0 to 100 percent where 0 corresponds to no injury and 100 corresponds to complete kill.

[3] = tested on: Brassica napus (winter rape, BRSNW); assay: Greenhouse postemergence trial BRSNW; assay type: in vivo; conditions: for visual injury, Obs: partner herbicide 560 g/ha alone
Protocol: (§5) Seeds of the desired test plant species were planted in a 90:10% v/v (volume/volume) mixture of PRO-MIX® BX (Premier Tech Horticulture, Quakertown, PA, USA) and PROFILE® GREENS GRADE™ (Profile Products LLC, Buffalo Grove, IL, USA) planting mixture, which typically has a pH of 5.2 to 6.2 and an organic matter content of at least 50 percent, in plastic pots with a surface area of 103.2 square centimeters (cm^2). […] The plants were grown for 7-36 days (d) in a greenhouse with an approximate 14-hour (h) photo-period which was maintained at about 23° C. during the day and 22° C. during the night. Nutrients and water were added on a regular basis and supplemental lighting was provided with overhead metal halide 1000-Watt lamps as necessary. The plants were employed for testing when they reached the second or third true leaf stage.
(§6) Emulsifiable concentrates of each of each pyridine carboxylate herbicide (Compound A or Compound B) were prepared at 100 grams acid equivalent per liter (g ae/L). The emulsifiable concentrates also included a safener, cloquintocet-mexyl, at 120 grams active ingredient per liter (g ai/L), unless otherwise noted below. An aliquot of each emulsifiable concentrate was placed in a 25 mL glass vial and diluted with an aqueous mixture of 1.25% (v/v) ACTIROB® B esterified rapeseed oil (Bayer Crop Science, Research Triangle Park, NC, USA) or MSO® Concentrate with LECI-TECH® methylated soybean oil (Loveland Products, Loveland, CO, USA) to obtain concentrated stock solutions at the highest application rate for each herbicide, based upon a 12 milliliter (mL) application volume at a rate of 187 liters per hectare (L/ha). The concentrated stock solutions were further diluted with an aqueous mixture of 1.25% v/v ACTIROB® B or MSO® Concentrate with LECI-TECH® to obtain stock solutions at reduced application rates for each herbicide. Spray solutions of the herbicide combinations (Compound A or Compound B plus synthetic auxin herbicide or auxin transport inhibitor) were prepared by adding weighed amounts or aliquots of the synthetic auxin herbicide or auxin transport inhibitor to the stock solutions of Compound A or Compound B to form 12-mL spray solutions in two-way combinations.
(§7) The spray solutions were applied to the plant material with an overhead Mandel track sprayer equipped with 8002E nozzles calibrated to deliver 187 L/ha over an application area of 0.503 square meters (m^2) at a spray height of 18 inches (43 centimeters (cm)) above the average plant canopy. Control plants were sprayed in the same manner with the solvent blank. All pyridine carboxylate herbicide (component a) application rates are given as “g ae/ha” and all synthetic auxin herbicide or auxin transport inhibitor (component b) application rates are given as “g ai/ha.”
as §4

[4] = tested on: Chenopodium album L. (common lambsquarters, CHEAL); assay: Greenhouse postemergence trial CHEAL; assay type: in vivo;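 further: greenhouse plants sprayed at second to third true leaf stage, injury rated by eye after 20-22 d versus solvent-blank sprayed controls, 0 = no injury, 100 = complete kill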
[5] = tested on: Cirsium arvense (Canadian thistle, CIRAR); assay: Greenhouse postemergence trial CIRAR; assay type: in vivo; conditions: for visual injury, Obs: partner herbicide 560 g/ha alone; for % visual injury, Obs: applied alone
Protocol: as §5, §6, §7, §4

[6] = tested on: Triticum aestivum (spring wheat, TRZAS); assay type: in vivo
Protocol: as §5, §6, §7, §4

[7] = tested on: Sinapis arvensis (wild mustard, SINAR); assay: Greenhouse postemergence trial SINAR; assay type: in vivo; conditions: SINAR; for visual injury, Obs: partner herbicide 560 g/ha alone; for % visual injury, Obs: applied alone
[8] = tested on: Capsella bursa-pastoris (shepherd's purse, CAPBP); assay: Greenhouse postemergence trial CAPBP; assay type: in vivo; conditions: CAPBP; for visual injury, Obs: partner herbicide 560 g/ha alone
Protocol: as §5, §6, §7, §4

[9] = tested on: Matricaria chamomilla (wild chamomile, MATCH); assay: Greenhouse postemergence trial MATCH; assay type: in vivo; conditions: MATCH; for visual injury, Obs: partner herbicide 560 g/ha alone; for % visual injury, Obs: applied alone;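 on all read-outs here: greenhouse plants sprayed at second to third true leaf stage, injury rated by eye 20-22 d later versus solvent-blank controls on 0–100 scale, 0 no injury, 100 complete kill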
[10] = tested on: Veronica hederifolia (ivyleaf speedwell, VERHE); assay: Greenhouse postemergence trial VERHE; assay type: in vivo; conditions: VERHE; for visual injury, Obs: partner herbicide 560 g/ha alone
Protocol: as §5, §6, §7, §4

[11] = tested on: Salsola kali (Russian thistle, SASKR); assay: Greenhouse postemergence trial SASKR; assay type: in vivo; conditions: SASKR; for visual injury, Obs: partner herbicide 560 g/ha alone; for % visual injury, Obs: applied alone;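 on all read-outs here: greenhouse plants sprayed at second or third true leaf stage, injury rated by eye after 20-22 d against solvent-blank controls, 0 meaning no injury, 100 complete kill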
Protocol: as §1, §2, §3, §4

[12] = tested on: Lamium purpureum (purple deadnettle, LAMPU); assay: Greenhouse postemergence trial LAMPU; conditions: for visual injury, Obs: partner herbicide 560 g/ha alone
[13] = tested on: Polygonum convolvulus (wild buckwheat, POLCO); assay: Greenhouse postemergence trial POLCO; assay type: in vivo; conditions: POLCO; for visual injury, Obs: partner herbicide 560 g/ha alone; for % visual injury, Obs: applied alone
[14] = tested on: Stellaria media (chickweed, STEME); assay: Greenhouse postemergence trial STEME; assay type: in vivo; conditions: STEME; for visual injury, Obs: partner herbicide 560 g/ha alone
[15] = tested on: Viola tricolor (wild pansy, VIOTR); assay: Greenhouse postemergence trial VIOTR; conditions: for visual injury, Obs: partner herbicide 560 g/ha alone;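 on all read-outs here: greenhouse plants sprayed at second to third true leaf stage, injury rated visually after 20-22 d against solvent-blank sprayed controls, 0 meaning no injury and 100 complete kill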
Protocol: as §5, §6, §7, §4

[16] = tested on: Kochia scoparia (kochia, KCHSC); assay: Greenhouse postemergence trial KCHSC; assay type: in vivo; conditions: KCHSC; for visual injury, Obs: partner herbicide 560 g/ha alone; for % visual injury, Obs: applied alone
[17] = tested on: Papaver rhoeas (corn poppy, PAPRH); assay: Greenhouse postemergence trial PAPRH; assay type: in vivo; conditions: PAPRH; for visual injury, Obs: partner herbicide 560 g/ha alone
Protocol: as §5, §6, §7, §4

[18] = tested on: Papaver rhoeas (corn poppy), herbicide-resistant (PAPRH-R); assay: Greenhouse postemergence trial PAPRH-R; assay type: in vivo; conditions: for visual injury, Obs: partner herbicide 560 g/ha alone
[19] = tested on: Matricaria discoidea (pineapple weed, MATMT); assay: Greenhouse postemergence trial MATMT; assay type: in vivo; conditions: for visual injury, Obs: partner herbicide 560 g/ha alone
[20] = tested on: Viola arvensis (field violet, VIOAR); assay: Greenhouse postemergence trial VIOAR; assay type: in vivo; conditions: VIOAR; for visual injury, Obs: partner herbicide 560 g/ha alone
[21] = tested on: Cyanus segetum (cornflower, CENCY); assay: Greenhouse postemergence trial CENCY; assay type: in vivo; conditions: CENCY; for visual injury, Obs: partner herbicide 560 g/ha alone
[22] = tested on: Veronica persica (bird's-eye speedwell, VERPE); assay: Greenhouse postemergence trial VERPE; assay type: in vivo; conditions: for visual injury, Obs: partner herbicide 560 g/ha alone
[23] = tested on: Anthemis arvensis (field chamomile, ANTAR); assay: Greenhouse postemergence trial ANTAR; assay type: in vivo; conditions: ANTAR; for visual injury, Obs: partner herbicide 560 g/ha alone
[24] = tested on: Matricaria inodora (false chamomile, MATIN); assay: Greenhouse postemergence trial MATIN; assay type: in vivo; conditions: MATIN; for visual injury, Obs: partner herbicide 560 g/ha alone
[25] = tested on: Hordeum vulgare (winter barley, HORVW); assay: Greenhouse postemergence crop phytotoxicity HORVW; assay type: in vivo; conditions: HORVW; partner herbicide 560 g/ha alone
[26] = tested on: Triticum aestivum (winter wheat, TRZAW); assay: Greenhouse postemergence crop phytotoxicity TRZAW; assay type: in vivo; conditions: TRZAW; partner herbicide 560 g/ha alone
[27] = c1-2 Compound A 7.5/10, c3 Dicamba 140, c4-5 A 7.5/10 + Dicamba 140 g/ha

## Cc1cc(Cl)ccc1OCC(=O)O [MCPA-DMA, MCPA-dimethylammonium, reference compound]
[1]; Hordeum vulgare (spring barley, HORVS), in vivo
  % visual injury (crop phytotoxicity): 0%
[1]; in vivo
  HORVS % visual injury Obs: 0%
[2]; in vivo
  % visual injury: 63%
[3]; MCPA-DMA 400 g/ha (Table 37)
  BRSNW % visual injury Obs: 83%
[4]; in vivo
  % visual injury: 75%
[5]; in vivo
  CIRAR % visual injury Obs: 60%
[6]; Triticum aestivum (spring wheat, TRZAS), in vivo
  % visual injury (crop phytotoxicity): 0%
[6]; in vivo
  TRZAS % visual injury Obs: 0%

## Nc1c(Cl)c(F)nc(OCC(=O)O)c1Cl [Fluroxypyr]
[7]; Mutarda arvensis, post-emergence, Fluroxypyr 200 g/ha, read-out: % visual injury Obs
  pest or weed control: 90%
[8]; Capsella bursa-pastoris, post-emergence, Fluroxypyr 200 g/ha, read-out: % visual injury Obs
  pest or weed control: 10%
[9]; Matricaria chamomilla, post-emergence, Fluroxypyr 200 g/ha, read-out: % visual injury Obs
  pest or weed control: 10%
[10]; Veronica hederifolia, post-emergence, Fluroxypyr 200 g/ha, read-out: % visual injury Obs
  pest or weed control: 10%
[11]; Salsola kali, post-emergence, Fluroxypyr 200 g/ha, read-out: % visual injury Obs
  pest or weed control: 60%
[12]; Lamium purpureum, post-emergence, read-out: % visual injury Obs
  pest or weed control at 200 g/ha: 65%
[13]; Fallopia convolvulus, post-emergence, Fluroxypyr 200 g/ha, read-out: % visual injury Obs
  pest or weed control: 50%
[14]; Stellaria media, post-emergence, Fluroxypyr 200 g/ha, read-out: % visual injury Obs
  pest or weed control: 95%
[15]; Viola tricolor, post-emergence, read-out: % visual injury Obs
  pest or weed control at 200 g/ha: 65%
[16]; Bassia scoparia, post-emergence, Fluroxypyr 200 g/ha, read-out: % visual injury Obs
  pest or weed control: 70%
[17]; Papaver rhoeas, post-emergence, Fluroxypyr 200 g/ha, read-out: % visual injury Obs
  pest or weed control: 0%
[3]; Brassica napus, post-emergence, BRSNW, Fluroxypyr 200 g/ha, read-out: % visual injury Obs
  plant injury: 30%
[18]; Fluroxypyr 70 g/ha (Table 38)
  PAPRH-R % visual injury Obs: 25%
[18]; Fluroxypyr 100 g/ha (Table 38)
  PAPRH-R % visual injury Obs: 25%
[18]; Papaver rhoeas, post-emergence, PAPRH-R, Fluroxypyr 200 g/ha, read-out: % visual injury Obs
  pest or weed control: 10%
[19]; Fluroxypyr 70 g/ha (Table 38)
  MATMT % visual injury Obs: 10%
[19]; Fluroxypyr 100 g/ha (Table 38)
  MATMT % visual injury Obs: 10%
[19]; Matricaria discoidea, post-emergence, MATMT, Fluroxypyr 200 g/ha, read-out: % visual injury Obs
  pest or weed control: 0%
[20]; Viola arvensis, post-emergence, Fluroxypyr 200 g/ha, read-out: % visual injury Obs
  pest or weed control: 10%
[21]; Centaurea cyanus, post-emergence, Fluroxypyr 200 g/ha, read-out: % visual injury Obs
  pest or weed control: 100%
[22]; Veronica persica, post-emergence, VERVE, Fluroxypyr 200 g/ha, read-out: % visual injury Obs
  pest or weed control: 60%
[5]; Cirsium arvense, post-emergence, CIRAR, Fluroxypyr 200 g/ha, read-out: % visual injury Obs
  pest or weed control: 10%
[23]; Anthemis arvensis, post-emergence, Fluroxypyr 200 g/ha, read-out: % visual injury Obs
  pest or weed control: 60%
[24]; Tripleurospermum inodorum, post-emergence, Fluroxypyr 200 g/ha, read-out: % visual injury Obs
  pest or weed control: 65%

## Cc1cc(Cl)ccc1OCC(=O)O [MCPA]
[25]
  visual injury, Obs: 0%
[7]
  visual injury, Obs: 100%
[8]
  visual injury, Obs: 60%
[9]
  visual injury, Obs: 30%
[10]
  visual injury, Obs: 65%
[11]
  visual injury, Obs: 30%
[12]; LAMPU
  visual injury, Obs: 10%
[1]; HORVS, partner herbicide 560 g/ha alone
  visual injury, Obs: 0%
[13]
  visual injury, Obs: 30%
[26]
  visual injury, Obs: 0%
[14]
  visual injury, Obs: 50%
[15]; VIOTR
  visual injury, Obs: 60%
[16]
  visual injury, Obs: 30%
[17]
  visual injury, Obs: 95%
[3]; BRSNW
  visual injury, Obs: 90%
[18]; PAPRH-R
  visual injury, Obs: 60%
[19]; MATMT
  visual injury, Obs: 5%
[20]
  visual injury, Obs: 20%
[21]
  visual injury, Obs: 95%
[22]; VERPE
  visual injury, Obs: 60%
[5]; CIRAR
  visual injury, Obs: 65%
[6]; TRZAS, partner herbicide 560 g/ha alone
  visual injury, Obs: 0%
[23]
  visual injury, Obs: 60%
[24]
  visual injury, Obs: 50%

## COc1c(Cl)ccc(Cl)c1C(=O)O [Dicamba, dicamba, reference compound]
[7]
  visual injury, Obs: 85%
[8]
  visual injury, Obs: 60%
[9]; 140 g/ha
  % visual injury, Obs: 3%
[9]
  visual injury, Obs: 35%
[10]
  visual injury, Obs: 75%
[11]
  visual injury, Obs: 65%
[12]; LAMPU
  visual injury, Obs: 20%
[13]
  visual injury, Obs: 100%
[14]
  visual injury, Obs: 75%
[15]; VIOTR
  visual injury, Obs: 20%
[2]; 140 g/ha
  % visual injury, Obs: 60%
[2]; [27]
  % visual injury: 50%
[16]
  visual injury, Obs: 80%
[17]
  visual injury, Obs: 30%
[3]; BRSNW
  visual injury, Obs: 70%
[3]; Brassica napus, post-emergence, BRSNW, applied alone, 140 g/ha, read-out: % visual injury, Obs
  plant injury at 140 g/ha: 23%
[18]; PAPRH-R
  visual injury, Obs: 30%
[19]; MATMT
  visual injury, Obs: 25%
[20]
  visual injury, Obs: 30%
[21]
  visual injury, Obs: 100%
[4]; [27]
  % visual injury: 48%
[22]; VERPE
  visual injury, Obs: 60%
[5]; CIRAR
  visual injury, Obs: 70%
[23]
  visual injury, Obs: 100%
[24]
  visual injury, Obs: 70%

## COC(=O)c1nc(-c2ccc(Cl)c(OC)c2F)cc(N)c1Cl [Halatvcifen-methyl]
[7]; 3 g/ha
  % visual injury, Obs: 40%
[9]; 3 g/ha
  % visual injury, Obs: 5%
[11]; 3 g/ha
  % visual injury, Obs: 73%
[1]; HORVS, applied alone, 3 g/ha
  % visual injury, Obs: 0%
[13]; 3 g/ha
  % visual injury, Obs: 20%
[2]; 3 g/ha
  % visual injury, Obs: 68%
[16]; 3 g/ha
  % visual injury, Obs: 40%
[3]; BRSNW, applied alone, 3 g/ha
  % visual injury, Obs: 15%
[4]; CHEAL, applied alone, 3 g/ha
  % visual injury, Obs: 83%
[5]; CIRAR, 3 g/ha
  % visual injury, Obs: 10%
[6]; TRZAS, applied alone, 3 g/ha
  % visual injury, Obs: 0%

## CC(Oc1ccc(Cl)cc1Cl)C(=O)O (stereo not shown) [Dichlorprop]
[7]; 560 g/ha
  % visual injury, Obs: 100%
[8]; applied alone, 560 g/ha
  % visual injury, Obs: 70%
[9]; 560 g/ha
  % visual injury, Obs: 50%
[10]; applied alone, 560 g/ha
  % visual injury, Obs: 60%
[11]; 560 g/ha
  % visual injury, Obs: 70%
[12]; LAMPU, applied alone, 560 g/ha
  % visual injury, Obs: 30%
[13]; 560 g/ha
  % visual injury, Obs: 95%
[14]; applied alone, 560 g/ha
  % visual injury, Obs: 30%
[15]; VIOTR, applied alone, 560 g/ha
  % visual injury, Obs: 85%
[16]; 560 g/ha
  % visual injury, Obs: 75%
[17]; applied alone, 560 g/ha
  % visual injury, Obs: 65%
[3]; Brassica napus, post-emergence, BRSNW, applied alone, 560 g/ha, read-out: % visual injury, Obs
  plant injury at 560 g/ha: 75%
[18]; PAPRH-R, applied alone, 560 g/ha
  % visual injury, Obs: 30%
[19]; MATMT, applied alone, 560 g/ha
  % visual injury, Obs: 10%
[20]; applied alone, 560 g/ha
  % visual injury, Obs: 25%
[21]; applied alone, 560 g/ha
  % visual injury, Obs: 100%
[22]; VERPE, applied alone, 560 g/ha
  % visual injury, Obs: 30%
[5]; CIRAR, 560 g/ha
  % visual injury, Obs: 75%
[23]; applied alone, 560 g/ha
  % visual injury, Obs: 95%
[24]; applied alone, 560 g/ha
  % visual injury, Obs: 60%
